Measured values published in ChEMBL document CHEMBL1201862, “PubChem BioAssay data set” (2004).
Active and inactive are the calls of the source.

Key:
[1] = target: G2/mitotic-specific cyclin-B1 (Homo sapiens, UniProt P14635); experiment: Counterscreen assay for inhibitors of Wee1 degradation: dose response cell-based assay to identify inhibitors of cyclin B degradation. [Related pubchem assays: 1410, 1321 ]; assay type: functional
[2] = luciferase reporter signal suppression in cells – H4 neuroglioma cells, luminescence, dose response (AID 1990); assay type: functional, cell-based
[3] = target: Sphingosine 1-phosphate receptor 2 (Homo sapiens, UniProt O95136); experiment: Dose Response Cell Based Assay for Antagonists of the S1P2 Receptor. [Related pubchem assays: 856, 736 ]; assay type: functional
Sequence of Sphingosine 1-phosphate receptor 2 (O95136 whole entry): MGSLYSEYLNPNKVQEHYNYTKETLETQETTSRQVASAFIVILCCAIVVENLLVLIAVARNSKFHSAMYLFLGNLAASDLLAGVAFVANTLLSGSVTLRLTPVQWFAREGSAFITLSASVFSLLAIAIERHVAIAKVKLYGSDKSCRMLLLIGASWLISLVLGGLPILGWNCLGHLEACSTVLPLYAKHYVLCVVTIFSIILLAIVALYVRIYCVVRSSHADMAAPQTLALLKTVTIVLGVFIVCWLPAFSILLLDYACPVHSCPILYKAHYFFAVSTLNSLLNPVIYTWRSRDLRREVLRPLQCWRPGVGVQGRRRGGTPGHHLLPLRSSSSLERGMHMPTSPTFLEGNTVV

[4] = target: Luciferin 4-monooxygenase (Photinus pyralis, UniProt P08659); experiment: inhibition of purified Photinus pyralis luciferase – biochemical, luminescence, dose response (AID 1891)
Sequence of Luciferin 4-monooxygenase (P08659 whole entry): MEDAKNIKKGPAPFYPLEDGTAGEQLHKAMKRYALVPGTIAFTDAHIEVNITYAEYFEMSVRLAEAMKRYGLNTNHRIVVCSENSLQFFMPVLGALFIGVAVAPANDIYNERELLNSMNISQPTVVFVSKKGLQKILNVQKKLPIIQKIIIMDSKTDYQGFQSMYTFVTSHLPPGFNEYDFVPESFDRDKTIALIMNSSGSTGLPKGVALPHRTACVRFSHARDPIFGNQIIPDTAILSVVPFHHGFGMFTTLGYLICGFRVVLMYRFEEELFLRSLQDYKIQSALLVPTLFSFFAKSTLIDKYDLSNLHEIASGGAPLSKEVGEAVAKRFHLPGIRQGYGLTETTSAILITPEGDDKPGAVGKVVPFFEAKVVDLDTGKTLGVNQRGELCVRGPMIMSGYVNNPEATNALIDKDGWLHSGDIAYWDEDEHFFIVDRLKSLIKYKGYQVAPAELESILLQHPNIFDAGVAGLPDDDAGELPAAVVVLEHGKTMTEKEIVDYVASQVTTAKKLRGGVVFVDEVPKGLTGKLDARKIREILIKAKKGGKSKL

[5] = Luminescence Cell-Based Dose Confirmation HTS to Identify Inhibitors of Platelet Dense Granule Release. [Related pubchem assays: 1663 (Primary HTS), 1678 (Summary of Project)]; assay type: functional
[6] = viability of HCT116 lacking mutant beta-catenin – cell-based, human colon tumor, dose response (AID 1045); assay type: functional;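 further: HCT116 colon tumor cells with beta catenin knocked out; cells exposed to compound for 60 hours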
[7] = tested on: CHO; experiment: CHO cell viability loss, potency – luminescence, cytotoxicity control for TLR9-MyD88 binding inhibitor project, dose response (AID 588339); assay type: functional, cell-based, hamster; settings: Cricetulus griseus;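 further: CHO cells stably coexpressing TLR9 and MyD88 fusions from primary screen; compound exposure lasted 48 hours before viability readout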
[8] = viability loss in HeLa cells – cytotoxicity control for MgcRacGAP inhibitor project, dose response (AID 624300); assay type: functional
[9] = target: T1, Rac GTPase-activating protein 1 (Homo sapiens, UniProt Q9H0H5); experiment: blockers of MgcRacGAP-driven Rac1 GTP hydrolysis – biochemical, ADP Hunter fluorescence, primary and confirmatory, confirmation (AID 624330); assay type: functional
T1 sequence (Q9H0H5 whole entry): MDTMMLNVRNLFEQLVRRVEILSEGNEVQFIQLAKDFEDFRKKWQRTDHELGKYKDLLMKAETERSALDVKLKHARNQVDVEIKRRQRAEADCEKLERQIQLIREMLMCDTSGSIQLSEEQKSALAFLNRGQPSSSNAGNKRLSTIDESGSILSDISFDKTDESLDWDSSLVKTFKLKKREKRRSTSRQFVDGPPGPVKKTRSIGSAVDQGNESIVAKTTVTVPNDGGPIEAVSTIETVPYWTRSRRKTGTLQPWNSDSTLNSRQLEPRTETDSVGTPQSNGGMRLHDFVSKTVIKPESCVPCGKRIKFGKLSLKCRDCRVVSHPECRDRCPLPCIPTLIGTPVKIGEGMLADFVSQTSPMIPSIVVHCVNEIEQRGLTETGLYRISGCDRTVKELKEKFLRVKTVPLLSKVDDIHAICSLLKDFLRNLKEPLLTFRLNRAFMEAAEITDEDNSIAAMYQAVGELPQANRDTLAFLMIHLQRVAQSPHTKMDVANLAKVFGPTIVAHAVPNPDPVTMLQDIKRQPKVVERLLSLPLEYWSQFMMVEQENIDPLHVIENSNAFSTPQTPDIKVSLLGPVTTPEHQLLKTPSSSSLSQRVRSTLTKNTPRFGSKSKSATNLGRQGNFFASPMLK

[10] = reduced cellular PGC1a acetyl-lysine signal – cell-based, cherry-picked samples, dose response (AID 720514); assay type: functional;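 further: potency may reflect raised or lowered acetylation signal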
[11] = target: Serine/threonine-protein phosphatase PP1-alpha catalytic subunit (Homo sapiens, UniProt P62136); experiment: inhibition of protein phosphatase 1 activity – biochemical, fluorescence, dose response (AID 2394)
Sequence of Serine/threonine-protein phosphatase PP1-alpha catalytic subunit (P62136 whole entry): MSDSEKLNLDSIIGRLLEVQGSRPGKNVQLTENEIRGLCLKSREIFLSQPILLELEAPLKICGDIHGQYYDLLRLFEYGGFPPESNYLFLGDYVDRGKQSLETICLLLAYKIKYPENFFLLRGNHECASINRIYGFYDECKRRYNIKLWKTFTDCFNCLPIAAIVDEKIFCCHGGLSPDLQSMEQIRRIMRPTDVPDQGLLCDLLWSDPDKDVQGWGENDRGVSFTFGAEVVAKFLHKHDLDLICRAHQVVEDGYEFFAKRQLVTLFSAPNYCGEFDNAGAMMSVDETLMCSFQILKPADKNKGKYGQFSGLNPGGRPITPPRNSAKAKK

[12] = target: Heat shock protein HSP 90-alpha (Homo sapiens, UniProt P07900); experiment: Luminescence-based dose response biochemical high throughput screening assay for inhibitors of the Heat Shock Protein 90 (HSP90). [Related pubchem assays: 1831 (Summary AID.), 1846 (Confirmation screen.), 1789 (Primary screen.)]
[13] = target: Beta-galactosidase (Escherichia coli, UniProt Q8VNN2); experiment: detection-enzyme interference by beta-gal modulators – biochemical, E. coli enzyme, set 3, artefact control for CCR6 antagonist project, dose response (AID 504712); assay type: functional
Sequence of Beta-galactosidase (Q8VNN2 whole entry): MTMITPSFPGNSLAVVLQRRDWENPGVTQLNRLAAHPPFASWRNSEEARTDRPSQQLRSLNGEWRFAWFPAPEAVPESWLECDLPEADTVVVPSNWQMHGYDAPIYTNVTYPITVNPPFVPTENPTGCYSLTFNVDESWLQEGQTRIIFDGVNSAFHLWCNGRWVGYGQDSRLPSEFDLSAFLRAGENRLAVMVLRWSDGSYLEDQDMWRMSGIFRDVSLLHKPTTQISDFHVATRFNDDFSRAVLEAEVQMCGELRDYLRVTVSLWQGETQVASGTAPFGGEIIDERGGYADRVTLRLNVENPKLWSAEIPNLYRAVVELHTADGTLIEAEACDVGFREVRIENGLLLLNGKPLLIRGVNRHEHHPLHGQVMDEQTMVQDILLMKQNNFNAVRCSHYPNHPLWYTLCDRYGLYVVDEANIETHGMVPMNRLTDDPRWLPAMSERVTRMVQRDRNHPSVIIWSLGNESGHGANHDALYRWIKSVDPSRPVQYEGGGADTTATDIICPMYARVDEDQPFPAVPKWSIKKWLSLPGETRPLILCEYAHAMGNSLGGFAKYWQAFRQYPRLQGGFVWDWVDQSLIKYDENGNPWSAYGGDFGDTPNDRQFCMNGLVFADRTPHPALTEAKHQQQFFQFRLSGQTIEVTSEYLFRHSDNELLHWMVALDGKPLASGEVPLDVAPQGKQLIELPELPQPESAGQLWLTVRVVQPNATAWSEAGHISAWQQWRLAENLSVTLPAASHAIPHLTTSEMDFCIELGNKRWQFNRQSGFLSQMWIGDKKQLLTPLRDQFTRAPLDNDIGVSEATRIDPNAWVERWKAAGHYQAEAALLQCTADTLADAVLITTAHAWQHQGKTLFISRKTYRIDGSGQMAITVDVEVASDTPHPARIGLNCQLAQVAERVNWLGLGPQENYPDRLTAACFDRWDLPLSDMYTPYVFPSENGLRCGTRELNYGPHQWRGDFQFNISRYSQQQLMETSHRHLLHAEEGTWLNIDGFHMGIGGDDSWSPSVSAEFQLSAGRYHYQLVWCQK

[14] = target: T2, Apoptotic protease-activating factor 1 (Homo sapiens, UniProt O14727); assay type: functional
T2 sequence (O14727 whole entry): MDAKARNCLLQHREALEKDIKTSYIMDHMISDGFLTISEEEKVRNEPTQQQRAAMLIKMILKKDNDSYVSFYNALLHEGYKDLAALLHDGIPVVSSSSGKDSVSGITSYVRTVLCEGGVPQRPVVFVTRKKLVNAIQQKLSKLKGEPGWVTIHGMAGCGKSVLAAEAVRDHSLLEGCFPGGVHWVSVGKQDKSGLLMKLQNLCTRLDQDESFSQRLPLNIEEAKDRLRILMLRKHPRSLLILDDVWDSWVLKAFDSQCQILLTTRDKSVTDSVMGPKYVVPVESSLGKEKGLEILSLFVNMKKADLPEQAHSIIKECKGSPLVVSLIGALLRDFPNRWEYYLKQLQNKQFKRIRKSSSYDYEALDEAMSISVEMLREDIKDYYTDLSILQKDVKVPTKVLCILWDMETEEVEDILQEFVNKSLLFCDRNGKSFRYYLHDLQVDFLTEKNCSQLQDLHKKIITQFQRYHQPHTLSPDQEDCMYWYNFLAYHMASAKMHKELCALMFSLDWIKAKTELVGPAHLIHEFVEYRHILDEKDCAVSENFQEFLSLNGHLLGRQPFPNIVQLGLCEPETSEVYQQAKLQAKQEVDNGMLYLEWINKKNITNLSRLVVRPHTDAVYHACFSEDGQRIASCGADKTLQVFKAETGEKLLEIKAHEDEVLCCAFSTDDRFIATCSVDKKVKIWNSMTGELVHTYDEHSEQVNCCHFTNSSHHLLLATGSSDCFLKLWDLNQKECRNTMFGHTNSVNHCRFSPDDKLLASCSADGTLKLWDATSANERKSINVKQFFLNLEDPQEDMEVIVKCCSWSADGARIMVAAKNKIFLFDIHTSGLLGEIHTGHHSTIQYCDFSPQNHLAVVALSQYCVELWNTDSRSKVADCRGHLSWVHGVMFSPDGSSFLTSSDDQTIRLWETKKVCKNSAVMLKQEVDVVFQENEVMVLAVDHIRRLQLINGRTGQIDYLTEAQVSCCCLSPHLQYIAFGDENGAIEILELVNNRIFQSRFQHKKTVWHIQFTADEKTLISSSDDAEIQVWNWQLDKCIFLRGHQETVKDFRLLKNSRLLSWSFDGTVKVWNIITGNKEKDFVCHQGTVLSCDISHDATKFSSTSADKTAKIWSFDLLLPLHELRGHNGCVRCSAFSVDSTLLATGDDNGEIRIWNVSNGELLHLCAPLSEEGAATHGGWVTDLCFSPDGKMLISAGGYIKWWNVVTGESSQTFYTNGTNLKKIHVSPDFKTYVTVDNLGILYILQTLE

[15] = tested on: Vero; experiment: cells; assay type: functional; settings: Chlorocebus sabaeus

Sequence of G2/mitotic-specific cyclin-B1 (P14635 whole entry): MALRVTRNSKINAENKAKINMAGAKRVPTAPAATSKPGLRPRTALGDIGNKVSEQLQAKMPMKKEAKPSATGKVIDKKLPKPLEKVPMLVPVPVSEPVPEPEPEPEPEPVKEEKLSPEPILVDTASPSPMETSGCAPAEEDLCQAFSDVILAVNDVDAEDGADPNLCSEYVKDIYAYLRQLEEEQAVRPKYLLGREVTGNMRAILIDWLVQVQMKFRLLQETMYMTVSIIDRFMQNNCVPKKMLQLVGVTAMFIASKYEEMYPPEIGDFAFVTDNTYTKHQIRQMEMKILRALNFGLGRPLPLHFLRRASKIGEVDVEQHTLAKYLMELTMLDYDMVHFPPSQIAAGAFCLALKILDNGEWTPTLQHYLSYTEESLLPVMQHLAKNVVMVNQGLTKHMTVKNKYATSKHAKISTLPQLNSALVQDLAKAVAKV

With `COc1ccc(NC(=O)/C(Cl)=C(/Cl)[S+]([O-])Cc2ccccc2)cn1` (stereo not given) the EC50 [1] was > 1.84 µM (active), the EC50 [2] was 5.93 µM (active) and the IC50 [3] was 0.942 µM (active). The EC50 [4] was > 112 µM (not active), the EC50 [5] was 6.34 µM (active) and the EC50 [6] was 0.185 µM (active). For the same compound, the IC50 [7] was 0.453 µM (active), the CC50 [8] was 24.1 µM (active) and the IC50 [9] was 36.5 µM (active). The AC50 [10] was 1.65 µM (active).
In the case of `Cc1ccc(S(=O)(=O)/N=C2\C=C(Nc3cccc(C(=O)O)c3)C(=O)c3ccccc32)c(C)c1`, the IC50 [11] is reported as 27.1 µM (not active), the IC50 [12] is reported as 0.919 µM (active) and the IC50 [13] is reported as 43.5 µM (inactive). The IC50 [14] was 4.11 µM (active) and the CC50 [15] was > 25 µM (active).
